From patent US9999622B2, “Pyrazolothiazole compound and medicine comprising same” (NIPPON SHINYAKU CO., LTD., priority 2014, dated 2018)

Key:
Assay type in all cases: biochemical
JAK1 = molecular target: T1, JAK1 (Homo sapiens, UniProt P23458); assay: JAK tyrosine kinase inhibitory activity in the presence of 1 mM ATP (ELISA), JAK1
T1 construct: purchased Carna Biosciences, Inc
Method in brief: (§1)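 ELISA read-out: HRP-labelled anti-phosphotyrosine antibody with TMB, absorbance 450 nm, after 1 h kinase reaction at 30 °C in presence of 1 mM ATP. Kinase diluted to 7.5 nM (JAK1) or 0.75 nM (JAK2/JAK3) in Tris-HCl pH 7.5 buffer with DTT; compounds tested in duplicate.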

JAK3 = molecular target: T2, JAK3 (Homo sapiens, UniProt P52333); assay: JAK tyrosine kinase inhibitory activity in the presence of 1 mM ATP (ELISA), JAK3
T2 construct: purchased Carna Biosciences, Inc
T2 sequence (P52333 1-1124): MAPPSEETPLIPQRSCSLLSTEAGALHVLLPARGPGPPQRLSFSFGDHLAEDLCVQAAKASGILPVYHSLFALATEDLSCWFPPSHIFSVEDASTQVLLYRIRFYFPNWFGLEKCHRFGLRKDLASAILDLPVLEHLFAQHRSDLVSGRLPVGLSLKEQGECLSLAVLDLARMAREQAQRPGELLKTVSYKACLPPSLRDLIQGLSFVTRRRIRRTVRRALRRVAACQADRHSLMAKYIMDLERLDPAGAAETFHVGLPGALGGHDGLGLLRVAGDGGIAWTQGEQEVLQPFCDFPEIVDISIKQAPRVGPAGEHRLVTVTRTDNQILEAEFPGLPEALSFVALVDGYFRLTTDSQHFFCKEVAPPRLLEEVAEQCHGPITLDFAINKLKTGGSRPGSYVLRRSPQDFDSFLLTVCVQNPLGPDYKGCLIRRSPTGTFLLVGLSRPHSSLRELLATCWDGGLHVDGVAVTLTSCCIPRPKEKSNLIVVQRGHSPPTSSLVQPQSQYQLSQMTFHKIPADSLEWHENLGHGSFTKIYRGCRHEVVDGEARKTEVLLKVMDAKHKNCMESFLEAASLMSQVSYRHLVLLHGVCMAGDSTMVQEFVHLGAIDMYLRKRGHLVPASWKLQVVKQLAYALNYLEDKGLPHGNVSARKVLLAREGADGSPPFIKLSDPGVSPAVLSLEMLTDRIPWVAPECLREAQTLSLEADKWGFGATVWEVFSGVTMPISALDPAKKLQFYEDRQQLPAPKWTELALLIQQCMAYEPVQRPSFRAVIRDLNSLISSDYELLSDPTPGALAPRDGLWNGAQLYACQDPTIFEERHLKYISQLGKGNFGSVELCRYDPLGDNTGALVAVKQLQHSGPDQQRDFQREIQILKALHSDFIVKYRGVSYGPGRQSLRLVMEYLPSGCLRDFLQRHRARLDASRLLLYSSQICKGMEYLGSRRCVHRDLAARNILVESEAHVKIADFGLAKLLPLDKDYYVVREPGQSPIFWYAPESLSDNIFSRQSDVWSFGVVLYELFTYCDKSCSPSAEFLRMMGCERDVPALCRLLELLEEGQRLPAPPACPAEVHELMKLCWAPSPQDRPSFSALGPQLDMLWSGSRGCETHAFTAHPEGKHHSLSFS
Method in brief: as §1

JAK2 = molecular target: T3, JAK2 (Homo sapiens, UniProt O60674); assay: JAK tyrosine kinase inhibitory activity in the presence of 1 mM ATP (ELISA), JAK2
T3 construct: purchased Carna Biosciences, Inc
Method in brief: as §1

T3 sequence (O60674 whole entry): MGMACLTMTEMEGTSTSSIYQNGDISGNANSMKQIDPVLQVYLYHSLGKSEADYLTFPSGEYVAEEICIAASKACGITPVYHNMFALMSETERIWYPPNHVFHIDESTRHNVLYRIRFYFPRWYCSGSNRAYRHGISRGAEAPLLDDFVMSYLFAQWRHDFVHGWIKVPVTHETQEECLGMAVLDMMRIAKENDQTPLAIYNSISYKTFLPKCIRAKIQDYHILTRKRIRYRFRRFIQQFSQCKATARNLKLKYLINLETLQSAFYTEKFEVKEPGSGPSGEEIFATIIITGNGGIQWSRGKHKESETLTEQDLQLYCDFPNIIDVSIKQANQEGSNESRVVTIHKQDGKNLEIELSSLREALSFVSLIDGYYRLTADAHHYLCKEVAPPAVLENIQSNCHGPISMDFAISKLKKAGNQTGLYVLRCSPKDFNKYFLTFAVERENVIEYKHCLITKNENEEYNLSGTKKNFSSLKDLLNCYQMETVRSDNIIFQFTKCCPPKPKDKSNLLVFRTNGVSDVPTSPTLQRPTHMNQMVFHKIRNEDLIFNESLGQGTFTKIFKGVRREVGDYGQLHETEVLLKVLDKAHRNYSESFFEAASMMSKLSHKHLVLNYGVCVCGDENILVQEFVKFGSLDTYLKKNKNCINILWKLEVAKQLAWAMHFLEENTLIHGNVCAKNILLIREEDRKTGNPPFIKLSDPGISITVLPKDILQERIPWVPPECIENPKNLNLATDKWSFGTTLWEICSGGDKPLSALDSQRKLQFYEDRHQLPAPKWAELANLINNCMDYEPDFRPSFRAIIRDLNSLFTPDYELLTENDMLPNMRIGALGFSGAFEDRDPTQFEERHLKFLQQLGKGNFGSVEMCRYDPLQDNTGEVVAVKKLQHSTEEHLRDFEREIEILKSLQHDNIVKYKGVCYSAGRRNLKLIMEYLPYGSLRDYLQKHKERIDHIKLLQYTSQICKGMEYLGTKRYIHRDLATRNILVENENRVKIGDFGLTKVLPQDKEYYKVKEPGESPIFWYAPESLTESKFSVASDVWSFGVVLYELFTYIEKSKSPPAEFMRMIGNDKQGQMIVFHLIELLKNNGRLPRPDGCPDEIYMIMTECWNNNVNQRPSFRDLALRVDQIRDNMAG
T1 sequence (P23458 whole entry): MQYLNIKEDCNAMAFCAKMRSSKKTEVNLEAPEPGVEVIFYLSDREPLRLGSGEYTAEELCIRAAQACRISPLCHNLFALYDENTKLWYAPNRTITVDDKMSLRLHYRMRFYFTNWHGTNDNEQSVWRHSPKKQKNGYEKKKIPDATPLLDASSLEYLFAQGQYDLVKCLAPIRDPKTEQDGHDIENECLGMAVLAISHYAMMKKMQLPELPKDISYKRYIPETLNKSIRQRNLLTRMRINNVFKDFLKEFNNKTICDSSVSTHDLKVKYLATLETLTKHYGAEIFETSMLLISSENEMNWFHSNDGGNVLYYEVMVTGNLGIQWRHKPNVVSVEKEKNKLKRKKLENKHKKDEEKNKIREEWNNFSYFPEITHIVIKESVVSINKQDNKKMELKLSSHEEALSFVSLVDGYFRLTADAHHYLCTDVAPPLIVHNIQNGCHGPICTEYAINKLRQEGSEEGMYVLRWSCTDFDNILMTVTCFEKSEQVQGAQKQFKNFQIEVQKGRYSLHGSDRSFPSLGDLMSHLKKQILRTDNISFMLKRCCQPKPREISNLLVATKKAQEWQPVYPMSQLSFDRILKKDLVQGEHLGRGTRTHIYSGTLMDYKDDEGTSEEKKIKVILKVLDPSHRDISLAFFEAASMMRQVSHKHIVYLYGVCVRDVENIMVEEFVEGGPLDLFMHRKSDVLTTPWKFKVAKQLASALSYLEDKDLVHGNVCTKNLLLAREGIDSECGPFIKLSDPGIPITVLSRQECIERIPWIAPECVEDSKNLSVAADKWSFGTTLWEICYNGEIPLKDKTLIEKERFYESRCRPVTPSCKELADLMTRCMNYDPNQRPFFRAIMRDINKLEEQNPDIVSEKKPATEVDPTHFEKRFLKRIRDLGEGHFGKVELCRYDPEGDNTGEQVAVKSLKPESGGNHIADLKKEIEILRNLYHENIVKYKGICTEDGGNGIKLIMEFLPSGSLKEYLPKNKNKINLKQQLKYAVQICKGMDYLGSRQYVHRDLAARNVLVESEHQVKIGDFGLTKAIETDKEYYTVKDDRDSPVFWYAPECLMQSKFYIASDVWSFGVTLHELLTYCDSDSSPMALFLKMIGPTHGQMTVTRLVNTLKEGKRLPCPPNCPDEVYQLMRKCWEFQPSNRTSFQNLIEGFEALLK

| SMILES | IC50 (JAK1) | IC50 (JAK3) | IC50 (JAK2) |
| --- | --- | --- | --- |
| COC(=O)NC1CCN(C(=O)c2cc(N[C@H](C)c3ccc(F)cc3)nc(-c3cnn4ccsc34)n2)CC1 [Example 77, Methyl (1-{[6-{[(1R)-1-(4-fluorophenyl)ethyl]amino}-2-(pyrazolo[5,1-b][1,3]thiazol-7-yl)pyrimidin-4-yl]carbonyl}piperidin-4-yl)carbamate] | 980 nM | > 10000 nM | 3200 nM |
| O=C(NC1CCN(C(=O)c2cc(NCC3CNC3)nc(-c3cnn4ccsc34)n2)CC1)C1CC1 [Example 78, N-[1-({6-[(Azetidin-3-ylmethyl)amino]-2-(pyrazolo[5,1-b][1,3]thiazol-7-yl)pyrimidin-4-yl}carbonyl)piperidin-4-yl]cyclopropanecarboxamide] | 4100 nM | > 10000 nM | > 10000 nM |
| CC(C)C(=O)NC1CCN(C(=O)c2cc(N[C@H](C)c3ccc(F)cc3)nc(-c3cnn4ccsc34)n2)CC1 [Example 79, N-(1-{[6-{[(1R)-1-(4-Fluorophenyl)ethyl]amino}-2-(pyrazolo[5,1-b][1,3]thiazol-7-yl)pyrimidin-4-yl]carbonyl}piperidin-4-yl)-2-methylpropanamide] | 870 nM | > 10000 nM | 3300 nM |
| CCC(C)(C)Nc1cc(C(=O)N2CCC(NC(=O)OC)CC2)nc(-c2cnn3ccsc23)n1 [Example 80, Methyl [1-({6-[(2-methylbutan-2-yl)amino]-2-(pyrazolo[5,1-b][1,3]thiazol-7-yl)pyrimidin-4-yl}carbonyl)piperidin-4-yl]carbamate] | 110 nM | 2300 nM | 820 nM |
| CCCOC(=O)NC1CCN(C(=O)c2cc(NC(C)(C)C)nc(-c3cnn4ccsc34)n2)CC1 [Example 82, Propyl (1-{[6-(tert-butylamino)-2-(pyrazolo[5,1-b][1,3]thiazol-7-yl)pyrimidin-4-yl]carbonyl}piperidin-4-yl)carbamate] | 58 nM | 5800 nM | 9700 nM |
| CCCOC(=O)NC1CCN(C(=O)c2cc(N[C@H](C)C(C)(C)C)nc(-c3cnn4ccsc34)n2)CC1 [Example 85, Propyl (1-{[6-{[(2R)-3,3-dimethylbutan-2-yl]amino}-2-(pyrazolo[5,1-b][1,3]thiazol-7-yl)pyrimidin-4-yl]carbonyl}piperidin-4-yl)carbamate] | 330 nM | 2300 nM | 2200 nM |
| COCCOC(=O)NC1CCN(C(=O)c2cc(N[C@H](C)C3CC3)nc(-c3cnn4ccsc34)n2)CC1 [Example 88, 2-Methoxyethyl (1-{[6-{[(1R)-1-cyclopropylethyl]amino}-2-(pyrazolo[5,1-b][1,3]thiazol-7-yl)pyrimidin-4-yl]carbonyl}piperidin-4-yl)carbamate] | 190 nM | 4100 nM | 1000 nM |
| COCCOC(=O)NC1CCN(C(=O)c2cc(N[C@H](C)C(C)(C)C)nc(-c3cnn4ccsc34)n2)CC1 [Example 90, 2-Methoxyethyl (1-{[6-{[(2R)-3,3-dimethylbutan-2-yl]amino}-2-(pyrazolo[5,1-b][1,3]thiazol-7-yl)pyrimidin-4-yl]carbonyl}piperidin-4-yl)carbamate] | 620 nM | 1800 nM | 1200 nM |
| COCC(=O)NC1CCN(C(=O)c2cc(N[C@H](C)C(C)(C)C)nc(-c3cnn4ccsc34)n2)CC1 [Example 93, N-(1-{[6-{[(2R)-3,3-Dimethylbutan-2-yl]amino}-2-(pyrazolo[5,1-b][1,3]thiazol-7-yl)pyrimidin-4-yl]carbonyl}piperidin-4-yl)-2-methoxyacetamide] | 40 nM | 1000 nM | 1200 nM |
| CC(C)(C)CNc1cc(C(=O)N2CCC(O)CC2)nc(-c2cnn3ccsc23)n1 [Example 94, {6-[(2,2-Dimethylpropyl)amino]-2-(pyrazolo[5,1-b][1,3]thiazol-7-yl)pyrimidin-4-yl}(4-hydroxypiperidin-1-yl)methanone] | 1900 nM | 5400 nM | 2200 nM |
| C[C@H](Nc1cc(C(=O)N2CCC(NC(=O)OCC(F)F)CC2)nc(-c2cnn3ccsc23)n1)C1CC1 [Example 98, 2,2-Difluoroethyl (l-{[6-{[(1S)-1-cyclopropylethyl]amino}-2-(pyrazolo[5,1-b][1,3]thiazol-7-yl)pyrimidin-4-yl]carbonyl}piperidin-4-yl)carbamate] | 37 nM | 1400 nM | 1400 nM |
| C[C@H](Nc1cc(C(=O)N2CCC(NC(=O)OCC(F)F)CC2)nc(-c2cnn3ccsc23)n1)C(C)(C)C [Example 99, 2,2-Difluoroethyl (1-{[6 {[(2S) 3,3-dimethylbutan-2-yl]amino}-2-(pyrazolo[5,1-b][1,3]thiazol-7-yl)pyrimidin-4-yl]carbonyl}piperidin-4-yl)carbamate] | 19 nM | 2600 nM | 790 nM |
| C[C@@H](Nc1cc(C(=O)N2CCC(NC(=O)OC(C)(C)C)CC2)nc(-c2cnn3ccsc23)n1)C(C)(C)C [Example 100, tert-Butyl (1-{[6-{[(2R)-3,3-dimethylbutan-2-yl]amino}-2-(pyrazolo[5,1-b][1,3]thiazol-7-yl)pyrimidin-4-yl]carbonyl}piperidin-4-yl)carbamate] | 140 nM | 3400 nM | 3000 nM |
| COCCOC(=O)NC1CCN(C(=O)c2cc(NC(C)(C)C)nc(-c3cnn4ccsc34)n2)CC1 [Example 101] | 98 nM | 3100 nM | 1800 nM |
| C[C@@H](Nc1cc(C(=O)N2CCC(NC(=O)OCCN(C)C)CC2)nc(-c2cnn3ccsc23)n1)C(C)(C)C [Example 102, 2-(Dimethylamino)ethyl (1-{[6-{[(2R)-3,3-dimethylbutan-2-yl]amino}-2-(pyrazolo[5,1-b][1,3]thiazol-7-yl)pyrimidin-4-yl]carbonyl}piperidin-4-yl)carbamate] | 24 nM | 1700 nM | 1300 nM |
| C[C@@H](Nc1cc(C(=O)N2CCC(NC(=O)OCC(F)(F)F)CC2)nc(-c2cnn3ccsc23)n1)C1CC1 [Example 103, 2,2,2-Trifluoroethyl (1-{[6-{[(1R)-1-cyclopropylethyl]amino}-2-(pyrazolo[5,1-b][1,3]thiazol 7-yl)pyrimidin-4-yl]carbonyl}piperidin-4-yl)carbamate] | 140 nM | 5900 nM | 2400 nM |
| C[C@@H](Nc1cc(C(=O)N2CCC(NC(=O)OCC(F)(F)F)CC2)nc(-c2cnn3ccsc23)n1)C(C)(C)C [Example 104, 2,2,2-Trifluoroethyl (1-{[6-{[(2R)-3,3-dimethylbutan-2-yl]amino}-2-(pyrazolo[5,1-b][1,3]thiazol-7-yl)pyrimidin-4-yl]carbonyl}piperidin-4-yl)carbamate] | 200 nM | 3400 nM | 3000 nM |
| CCC(CC)Nc1cc(C(=O)N2CCC(NC(=O)COC)CC2)nc(-c2cnn3ccsc23)n1 [Example 106, 2-Methoxy-N-(1-{[6-(pentan-3-ylamino)-2-(pyrazolo[5,1-b][1,3]thiazol-7-yl)pyrimidin-4-yl]carbonyl}piperidin-4-yl)acetamide] | 600 nM | 2800 nM | 1300 nM |
| CCC(CC)COc1cc(C(=O)N2CCC(NC(=O)C3CC3)CC2)nc(-c2cnn3ccsc23)n1 [Example 107, N-(1-{[6-(2-Ethylbutoxy)-2-(pyrazolo[5,1-b][1,3]thiazol-7-yl)pyrimidin-4-yl]carbonyl}piperidin-4-yl)cyclopropanecarboxamide] | 200 nM | 1600 nM | 3500 nM |
